Entries after “also recorded” stand apart in the source; their conditions may differ.
Columns and labels:
[1] = Qualitative test for relative solubility
plasmin = plasmin (Homo sapiens, UniProt P00747); test: Fibrin clot degradation by plasmin (gravimetric, protease inhibition); type: biochemical; settings: for protease inhibition activity (inhibiting plasmin mediated degradation of fibrin clots): 0-1 mM in fibrin clots, plasmin in PBS buffer; for protease inhibition activity (inhibiting plasmin mediated degradation of fibrin clots) / resistance against fibrin clot degradation by plasmin: up to 48 hours; for resistance against fibrin clot degradation by plasmin: about 0.1 mM, triplicate; for plasmin-mediated degradation of fibrin clots at 3% loading: about 3% loading in fibrin clots; for protease inhibition activity compared with TA (conclusion): fibrin clot / plasmin system; for degradation of the clot: about 16 hours
plasmin, sequence (P00747 581-810): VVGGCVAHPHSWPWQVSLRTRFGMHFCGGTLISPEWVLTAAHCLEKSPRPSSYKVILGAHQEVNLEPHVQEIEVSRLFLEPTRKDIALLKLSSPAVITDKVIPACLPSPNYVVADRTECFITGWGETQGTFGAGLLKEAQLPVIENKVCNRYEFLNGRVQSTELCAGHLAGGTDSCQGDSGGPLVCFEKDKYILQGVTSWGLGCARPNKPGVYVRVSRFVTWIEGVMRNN
plasmin, sequence (P00747 97-580): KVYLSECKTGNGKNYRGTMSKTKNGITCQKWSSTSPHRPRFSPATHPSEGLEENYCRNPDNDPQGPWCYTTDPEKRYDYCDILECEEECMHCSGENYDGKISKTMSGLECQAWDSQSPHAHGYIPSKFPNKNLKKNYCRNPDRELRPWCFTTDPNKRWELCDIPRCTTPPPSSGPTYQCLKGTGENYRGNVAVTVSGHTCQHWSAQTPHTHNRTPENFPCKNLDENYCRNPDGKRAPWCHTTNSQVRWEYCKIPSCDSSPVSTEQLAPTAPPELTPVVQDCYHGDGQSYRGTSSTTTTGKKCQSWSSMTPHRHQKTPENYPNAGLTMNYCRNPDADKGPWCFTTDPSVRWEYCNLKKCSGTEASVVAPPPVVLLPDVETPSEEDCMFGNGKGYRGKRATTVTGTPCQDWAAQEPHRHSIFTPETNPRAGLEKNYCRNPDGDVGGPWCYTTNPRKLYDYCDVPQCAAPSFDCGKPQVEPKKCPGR

[2] = test system: NDV (Newcastle disease virus) strain R2B
[3] = Fibrin clot swelling at 3% loading, with and without plasmin; settings: for fibrin clot swelling in degrading medium prior to degradation: medium containing plasmin; for fibrin clot swelling in non-degrading medium: no plasmin
[4] = test system: Human neuroblastoma cell line Sh-Sy5y; test: Cellular toxicity assay (MTT assay), neurotoxicity; settings: Sh-Sy5y cells, 1 ug/mL, 24 hours

## NCC1CCC(C(=O)[O][Ca][O]C(=O)C2CCC(CN)CC2)CC1 (stereo not shown) [Ca-TA, Calcium bis-tranexamate]
[1]
  water solubility: water soluble
[1]; pH 7.4 100 mM phosphate buffer versus water
  solvent needed to dissolve in buffer relative to water: approximately four times as much solvent
[1]; room temperature
  solubility in methanol or propanol: not soluble to a significant degree
plasmin; pH 7.4, 37° C.
  protease inhibition activity (inhibiting plasmin mediated degradation of fibrin clots): dose-dependent protease inhibition activity; also recorded: exhibit protease inhibition activity
  resistance against fibrin clot degradation by plasmin: effective resistance
plasmin
  plasmin-mediated degradation of fibrin clots at 3% loading: inhibited plasmin-mediated degradation of the fibrin clots for a longer period
  protease inhibition activity compared with TA (conclusion): comparable to that of TA
plasmin; plasmin, pH 7.4, 37° C.
  concentration at which efficacious against fibrin clot degradation: ≤ 0.1 mM
[2]
  antiviral activity versus virus control: no significant difference between the virus control and treated
  toxicity to cells treated with compound only: no toxicity was observed
[3]
  fibrin clot swelling in degrading medium prior to degradation: more than 50%
  fibrin clot swelling in non-degrading medium: more than 50%
[4]
  cytotoxicity or neurotoxicity compared with TA: comparable cytotoxicity or neurotoxicity results as that of TA

## COCC(=O)NCC1CCC(C(=O)O)CC1 (stereo not shown) [MTA, N-(methoxy-acetamido) tranexamic acid]
[1]
  water solubility: water soluble
plasmin; pH 7.4, 37° C.
  protease inhibition activity (inhibiting plasmin mediated degradation of fibrin clots): exhibit protease inhibition activity
plasmin; 0.1 mM, plasmin, pH 7.4, 37° C.
  degradation of the clot: 100%
plasmin; 1 mM, plasmin, pH 7.4, 37° C.
  degradation of the clot: about 85.1+/−0.6%
plasmin
  protease inhibition activity compared with TA (conclusion): eliminates or significantly reduces protease inhibition activity; also recorded: reduced protease inhibition activity than TA
[2]
  antiviral activity versus virus control: no significant difference between the virus control and treated
[4]
  cytotoxicity or neurotoxicity compared with TA: reduced neurotoxicity than TA

## NCC1CCC(C(=O)O)CC1 (stereo not shown) [TA, Tranexamic acid, reference compound]
plasmin; pH 7.4, 37° C.
  resistance against fibrin clot degradation by plasmin: effective resistance
plasmin
  plasmin-mediated degradation of fibrin clots at 3% loading: inhibited plasmin-mediated degradation of the fibrin clots for a longer period
[2]
  antiviral activity versus virus control: no significant difference between the virus control and treated
[3]
  fibrin clot swelling in degrading medium prior to degradation: degraded without swelling
  fibrin clot swelling in non-degrading medium: did not swell
